Among the targets are CAMK2G (human) (UniProt Q13555); CDK11A (human) (UniProt Q9UQ88); NTRK3 (human) (UniProt Q16288); NEK7 (human) (UniProt Q8TDX7); PAK2 (human) (UniProt Q13177); MYO3B (human) (UniProt Q8WXR4); NEK1 (human) (UniProt Q96PY6); TLK2 (human) (UniProt Q86UE8); YES1 (human) (UniProt P07947); CDK9 (human) (UniProt P50750); FGFR2 (human) (UniProt P21802); PAK1 (human) (UniProt Q13153); FER (human) (UniProt P16591); AXL (human) (UniProt P30530); CDC42BPA (human) (UniProt Q5VT25); WEE2 (human) (UniProt P0C1S8); DDR2 (human) (UniProt Q16832); MAP3K10 (human) (UniProt Q02779); ADCK4 (human) (UniProt Q96D53); EPHA6 (human) (UniProt Q9UF33); MAP3K12 (human) (UniProt Q12852); MAPKAPK2 (human) (UniProt P49137); PRKACB (human) (UniProt P22694); MAP3K11 (human) (UniProt Q16584); MARK1 (human) (UniProt Q9P0L2); PAK4 (human) (UniProt O96013); NEK5 (human) (UniProt Q6P3R8); MARK3 (human) (UniProt P27448); PRKAA1 (human) (UniProt Q13131); RPS6KA2 KD1 (human) (UniProt Q15349); GSK3B (human) (UniProt P49841); PIK3CA (human) (UniProt P42336); EPHA5 (human) (UniProt P54756); EPHA1 (human) (UniProt P21709); MAP2K2 (human) (UniProt P36507); CSNK1G2 (human) (UniProt P78368); EPHB2 (human) (UniProt P29323); TSSK1B (human) (UniProt Q9BXA7); NEK9 (human) (UniProt Q8TD19).

Experiment in all cases: KINOMEscan competition binding
Holding throughout (conditions): compound 10.0 µM

Assay [1] deals with EGFR (human), P00533 [752-759 del].
Assay [2] concerns ABL1 (human), P00519 [H396P].
The subject of assay [3] is EGFR (human), P00533 [L861Q].

Each structure is given as a SMILES string.

NEK7 (human), sequence (Q8TDX7 whole entry, looked up): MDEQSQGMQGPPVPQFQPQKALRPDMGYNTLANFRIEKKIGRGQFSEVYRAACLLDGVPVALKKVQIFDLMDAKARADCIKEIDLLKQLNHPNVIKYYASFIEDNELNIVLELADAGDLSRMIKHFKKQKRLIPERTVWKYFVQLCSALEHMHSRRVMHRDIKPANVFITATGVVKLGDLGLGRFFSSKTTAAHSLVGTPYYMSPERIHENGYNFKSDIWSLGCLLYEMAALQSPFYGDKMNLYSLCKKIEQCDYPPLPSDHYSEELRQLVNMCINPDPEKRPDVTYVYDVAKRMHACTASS
PRKAA1 (human), sequence (Q13131 whole entry, looked up): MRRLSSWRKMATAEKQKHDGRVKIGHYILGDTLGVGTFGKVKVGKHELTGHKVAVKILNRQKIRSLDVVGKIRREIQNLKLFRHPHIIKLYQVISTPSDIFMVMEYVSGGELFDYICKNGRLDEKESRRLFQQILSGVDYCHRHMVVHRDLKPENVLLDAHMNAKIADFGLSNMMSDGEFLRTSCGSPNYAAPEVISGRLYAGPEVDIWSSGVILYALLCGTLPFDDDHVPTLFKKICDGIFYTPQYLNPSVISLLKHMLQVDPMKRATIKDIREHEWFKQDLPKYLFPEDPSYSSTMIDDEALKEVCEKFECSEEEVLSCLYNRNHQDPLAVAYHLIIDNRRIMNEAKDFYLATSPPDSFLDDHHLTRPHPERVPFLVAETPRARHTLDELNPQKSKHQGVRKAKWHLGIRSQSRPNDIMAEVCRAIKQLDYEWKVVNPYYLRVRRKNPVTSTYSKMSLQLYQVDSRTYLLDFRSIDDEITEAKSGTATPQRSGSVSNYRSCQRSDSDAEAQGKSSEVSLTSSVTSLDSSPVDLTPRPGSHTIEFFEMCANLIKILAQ
TLK2 (human), sequence (Q86UE8 whole entry, looked up): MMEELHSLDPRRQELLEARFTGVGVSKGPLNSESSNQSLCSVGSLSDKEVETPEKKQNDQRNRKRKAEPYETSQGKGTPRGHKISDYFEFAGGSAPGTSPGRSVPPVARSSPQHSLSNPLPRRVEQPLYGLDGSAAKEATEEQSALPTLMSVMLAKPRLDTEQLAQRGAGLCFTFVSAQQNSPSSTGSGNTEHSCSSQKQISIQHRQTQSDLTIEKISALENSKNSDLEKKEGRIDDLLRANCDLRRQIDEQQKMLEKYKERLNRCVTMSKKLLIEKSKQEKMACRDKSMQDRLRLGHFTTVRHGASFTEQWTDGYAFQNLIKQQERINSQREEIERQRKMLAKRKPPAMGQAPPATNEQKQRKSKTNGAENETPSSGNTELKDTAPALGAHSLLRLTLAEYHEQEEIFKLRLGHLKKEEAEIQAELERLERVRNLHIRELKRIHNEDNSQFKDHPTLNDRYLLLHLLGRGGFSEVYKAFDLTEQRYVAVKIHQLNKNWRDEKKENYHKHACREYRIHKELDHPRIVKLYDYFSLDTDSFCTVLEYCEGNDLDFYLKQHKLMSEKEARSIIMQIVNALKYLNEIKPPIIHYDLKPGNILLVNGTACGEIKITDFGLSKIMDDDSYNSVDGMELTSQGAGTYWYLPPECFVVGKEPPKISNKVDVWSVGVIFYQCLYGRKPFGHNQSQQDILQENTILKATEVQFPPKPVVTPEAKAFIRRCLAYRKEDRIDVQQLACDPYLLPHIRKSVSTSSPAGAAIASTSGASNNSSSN
PAK2 (human), sequence (Q13177 whole entry, looked up): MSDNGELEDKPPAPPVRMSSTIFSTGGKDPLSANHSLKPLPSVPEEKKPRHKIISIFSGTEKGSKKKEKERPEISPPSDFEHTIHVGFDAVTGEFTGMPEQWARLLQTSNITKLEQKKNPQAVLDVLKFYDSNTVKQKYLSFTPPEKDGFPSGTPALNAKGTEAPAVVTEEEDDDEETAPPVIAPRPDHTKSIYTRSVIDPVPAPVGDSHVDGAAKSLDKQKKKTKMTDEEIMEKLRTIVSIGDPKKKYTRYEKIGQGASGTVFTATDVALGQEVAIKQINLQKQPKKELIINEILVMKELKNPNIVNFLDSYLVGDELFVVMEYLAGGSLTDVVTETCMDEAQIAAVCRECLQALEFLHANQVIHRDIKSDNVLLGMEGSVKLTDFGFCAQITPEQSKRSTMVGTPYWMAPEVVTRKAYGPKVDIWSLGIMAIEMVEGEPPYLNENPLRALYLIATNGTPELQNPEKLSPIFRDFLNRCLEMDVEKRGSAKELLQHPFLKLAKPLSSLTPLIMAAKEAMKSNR
CDK11A (human), sequence (Q9UQ88 whole entry, looked up): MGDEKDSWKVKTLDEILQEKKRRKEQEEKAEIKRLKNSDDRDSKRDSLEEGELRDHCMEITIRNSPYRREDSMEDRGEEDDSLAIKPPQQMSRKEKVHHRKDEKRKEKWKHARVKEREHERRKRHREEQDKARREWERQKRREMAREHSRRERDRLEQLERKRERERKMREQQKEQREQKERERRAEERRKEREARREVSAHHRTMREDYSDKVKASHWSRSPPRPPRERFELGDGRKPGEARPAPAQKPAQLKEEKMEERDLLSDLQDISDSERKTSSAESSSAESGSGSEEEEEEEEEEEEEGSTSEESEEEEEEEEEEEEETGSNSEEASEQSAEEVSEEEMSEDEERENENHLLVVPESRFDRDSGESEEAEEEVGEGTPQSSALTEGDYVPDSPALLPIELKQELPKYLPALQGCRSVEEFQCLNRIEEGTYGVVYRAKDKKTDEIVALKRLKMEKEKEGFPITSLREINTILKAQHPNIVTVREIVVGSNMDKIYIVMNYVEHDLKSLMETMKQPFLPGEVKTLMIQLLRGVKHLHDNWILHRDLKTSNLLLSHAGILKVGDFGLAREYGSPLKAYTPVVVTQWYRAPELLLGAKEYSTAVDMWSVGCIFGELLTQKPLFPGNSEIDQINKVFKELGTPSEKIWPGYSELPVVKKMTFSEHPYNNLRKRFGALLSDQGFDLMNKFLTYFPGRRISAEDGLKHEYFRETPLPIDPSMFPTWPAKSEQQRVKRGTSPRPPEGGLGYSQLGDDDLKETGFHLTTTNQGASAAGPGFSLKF
CSNK1G2 (human), sequence (P78368 whole entry, looked up): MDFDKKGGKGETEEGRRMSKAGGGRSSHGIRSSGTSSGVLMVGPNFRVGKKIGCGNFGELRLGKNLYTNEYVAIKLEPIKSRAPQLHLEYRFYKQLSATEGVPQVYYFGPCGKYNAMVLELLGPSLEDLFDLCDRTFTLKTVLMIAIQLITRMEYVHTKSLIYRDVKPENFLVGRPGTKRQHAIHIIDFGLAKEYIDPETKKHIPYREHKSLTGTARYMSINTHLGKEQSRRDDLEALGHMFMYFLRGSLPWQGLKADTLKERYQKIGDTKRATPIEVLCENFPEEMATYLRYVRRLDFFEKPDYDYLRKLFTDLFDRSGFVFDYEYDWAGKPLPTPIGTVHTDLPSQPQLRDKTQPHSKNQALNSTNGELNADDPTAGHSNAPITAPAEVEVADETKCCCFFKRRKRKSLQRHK
CAMK2G (human), sequence (Q13555 whole entry, looked up): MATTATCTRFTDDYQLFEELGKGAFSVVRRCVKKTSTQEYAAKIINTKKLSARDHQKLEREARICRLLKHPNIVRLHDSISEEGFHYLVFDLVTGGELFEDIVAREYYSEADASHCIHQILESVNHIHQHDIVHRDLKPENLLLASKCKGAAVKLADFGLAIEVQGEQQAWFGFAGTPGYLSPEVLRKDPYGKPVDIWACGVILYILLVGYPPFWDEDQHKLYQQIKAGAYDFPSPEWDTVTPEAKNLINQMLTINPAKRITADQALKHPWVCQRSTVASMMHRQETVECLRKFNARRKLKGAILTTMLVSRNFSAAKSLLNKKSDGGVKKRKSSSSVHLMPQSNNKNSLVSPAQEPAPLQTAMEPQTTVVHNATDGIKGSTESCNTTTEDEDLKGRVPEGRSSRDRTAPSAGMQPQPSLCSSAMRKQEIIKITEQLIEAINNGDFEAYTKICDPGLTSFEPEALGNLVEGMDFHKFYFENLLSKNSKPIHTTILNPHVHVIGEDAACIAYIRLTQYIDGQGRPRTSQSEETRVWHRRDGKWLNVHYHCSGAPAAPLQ
RPS6KA2 KD1 (human), sequence (Q15349 whole entry, looked up): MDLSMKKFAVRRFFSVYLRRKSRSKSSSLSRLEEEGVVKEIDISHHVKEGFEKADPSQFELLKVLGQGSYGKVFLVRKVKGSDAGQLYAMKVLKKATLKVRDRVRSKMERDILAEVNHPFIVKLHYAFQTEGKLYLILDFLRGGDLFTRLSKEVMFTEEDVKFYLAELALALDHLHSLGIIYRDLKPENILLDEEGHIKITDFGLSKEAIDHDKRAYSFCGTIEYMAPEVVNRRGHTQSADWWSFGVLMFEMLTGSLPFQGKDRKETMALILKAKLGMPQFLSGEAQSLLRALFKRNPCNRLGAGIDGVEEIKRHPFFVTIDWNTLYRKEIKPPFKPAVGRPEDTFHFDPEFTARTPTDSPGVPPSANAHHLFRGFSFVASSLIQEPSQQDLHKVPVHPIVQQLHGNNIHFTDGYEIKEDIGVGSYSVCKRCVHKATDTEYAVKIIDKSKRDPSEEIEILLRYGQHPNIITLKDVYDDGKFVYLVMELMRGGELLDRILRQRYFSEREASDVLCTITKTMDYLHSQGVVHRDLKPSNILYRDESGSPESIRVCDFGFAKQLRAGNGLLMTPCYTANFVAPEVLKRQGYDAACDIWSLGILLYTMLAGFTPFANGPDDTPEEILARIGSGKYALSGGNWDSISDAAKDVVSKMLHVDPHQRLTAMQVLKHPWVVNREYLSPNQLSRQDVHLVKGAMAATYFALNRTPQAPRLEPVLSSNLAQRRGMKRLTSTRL
TSSK1B (human), sequence (Q9BXA7 whole entry, looked up): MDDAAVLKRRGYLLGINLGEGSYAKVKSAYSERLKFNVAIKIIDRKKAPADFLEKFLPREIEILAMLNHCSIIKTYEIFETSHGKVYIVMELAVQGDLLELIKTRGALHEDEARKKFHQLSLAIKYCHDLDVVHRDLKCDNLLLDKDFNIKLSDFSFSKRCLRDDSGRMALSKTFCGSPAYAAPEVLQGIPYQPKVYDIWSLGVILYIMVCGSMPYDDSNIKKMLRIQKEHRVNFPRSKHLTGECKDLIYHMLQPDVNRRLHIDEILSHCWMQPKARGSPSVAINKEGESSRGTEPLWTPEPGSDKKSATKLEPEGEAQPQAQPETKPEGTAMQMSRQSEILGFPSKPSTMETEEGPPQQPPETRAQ

Regarding `O=C1NC(=S)S/C1=C\c1ccc(-c2cncc3ccccc23)o1`, the kinase still bound, per cent of control on CAMK2G (human) amounted to 32%; at CDK11A (human), 2%; on NTRK3 (human), 32%; on NEK7 (human) it was 17%; on PAK2 (human), 31%; at MYO3B (human) it was 26%. In addition, the kinase still bound, per cent of control on NEK1 (human) came to 31%; on TLK2 (human) it was 26%.

As for `CN1CCN(c2ccc(C(=O)Nc3ncc4c(n3)N(C)c3ccccc3C(=O)N4C)cc2)CC1`, the kinase still bound, per cent of control on YES1 (human) was 96%; on CAMK2G (human), 100%; on CDK9 (human), 100%; at FGFR2 (human), 100%; at PAK1 (human) it was 99%; on FER (human) it was 72%. Besides, the kinase still bound, per cent of control on AXL (human) came out at 100%; at CDC42BPA (human), 100%; at WEE2 (human), 100%; in assay [1], 100%; at DDR2 (human) it was 100%; at MAP3K10 (human), 99%. Also, the kinase still bound, per cent of control at ADCK4 (human) is 100%; at EPHA6 (human), 100%; at MAP3K12 (human), 87%; on MAPKAPK2 (human), 100%; on CDK11A (human) it was 100%; in [2], 88%. The kinase still bound, per cent of control was determined as 100% at PRKACB (human); 100% on MAP3K11 (human); 84% on NTRK3 (human); 100% on NEK7 (human); 96% on MARK1 (human); 100% on PAK2 (human). Also, the kinase still bound, per cent of control at PAK4 (human) stood at 100%; at NEK5 (human), 100%; on MARK3 (human) it was 100%; on PRKAA1 (human), 100%; on RPS6KA2 KD1 (human), 100%; at MYO3B (human), 93%. The kinase still bound, per cent of control in [3] was determined as 88%; at GSK3B (human), 79%; at PIK3CA (human), 100%; at EPHA5 (human), 100%; at EPHA1 (human), 100%; at MAP2K2 (human) it was 90%. Besides, the kinase still bound, per cent of control at NEK1 (human) worked out at 100%; on CSNK1G2 (human), 100%; on EPHB2 (human), 91%; at TSSK1B (human), 100%; on TLK2 (human), 100%; on NEK9 (human), 100%.

On CSNK1G2 (human), `CS(=O)(=O)Nc1ccc(-c2ncc(/C=C3\SC(=N)NC3=O)s2)cc1` registered a kinase still bound, per cent of control of 14%.

For the compound `N=C1NC(=O)/C(=C/c2ccc(-c3ccc(C(N)=O)cc3O)o2)S1`, the kinase still bound, per cent of control at MAPKAPK2 (human) was 25%; at PIK3CA (human), 9.2%.

Consider `Nc1cccc(-c2cc(/C=C3\SC(=O)NC3=O)c[nH]c2=O)c1`, for which the kinase still bound, per cent of control at CDK9 (human) stood at 25%; in assay [1] it was 14%; on DDR2 (human), 33%; on CSNK1G2 (human) it was 19%.

On PRKAA1 (human), `N=C1NC(=O)/C(=C/c2ccc(-c3ccc(F)cc3O)o2)S1` had a kinase still bound, per cent of control of 32%.

Consider `CS(=O)(=O)Nc1ccc(-c2cncc(/C=C3\SC(=N)NC3=O)c2)cc1`, for which the kinase still bound, per cent of control stood at 9.4% at PAK1 (human) and 0.75% on CSNK1G2 (human).

With `N=C1NC(=O)/C(=C/c2ccc(-c3cncc4ccccc34)o2)S1`, the kinase still bound, per cent of control on CAMK2G (human) was 11%; at CDK11A (human), 0.45%; on NEK7 (human) it was 15%; on PAK2 (human), 24%; on PAK4 (human) it was 18%; on PRKAA1 (human) it was 24%. The kinase still bound, per cent of control on RPS6KA2 KD1 (human) was determined as 26%; at NEK1 (human), 33%; at TLK2 (human) it was 23%.

Regarding `CN1C(=O)[C@H]2CCC[C@H]2N(C2CCCC2)c2nc(Nc3ccc(C(N)=O)cc3)ncc21`, the kinase still bound, per cent of control on AXL (human) came to 13%; at NEK5 (human) it was 9%; at PRKAA1 (human) it was 31%; on RPS6KA2 KD1 (human), 24%; on NEK9 (human) it was 8.9%.

Compound `N=C1NC(=O)/C(=C/c2c[nH]c(=O)c(-c3ccc(N4CCNCC4)nc3)c2)S1` yielded a kinase still bound, per cent of control on TSSK1B (human) of 9.8%.

For the compound `N=C1NC(=O)/C(=C/c2ccc(-c3csc4ccccc34)o2)S1`, the kinase still bound, per cent of control on NEK7 (human) was 33%; at MARK3 (human) it was 20%; at GSK3B (human), 12%.

The record behind these values is the kinase profiling compilation of Christmann-Franck et al. (2016).
